Results published in patent US4263326A, “Antimicrobial compositions containing an octylphenone” (The Lion Dentrifice Co. Ltd., priority 1978, dated 1981).
Read-outs that look alike come from different tables or passages of the source.

Legend:
[1] = test system: Bacillus subtilis; assay: Growth prevention of Bacillus subtilis in tripticase soy broth culture media at 37° C; type: cell-based
Procedure: For comparative purpose, three more culture media were prepared without addition of an antimicrobial agnet or with addition of 2% by weight of ethyl alcohol or 0.2% by weight of sorbic acid instead of the phenone compound and Bacillus subtilis was cultured therein similarly.

[2] = Oral LD50 in rats; type: in vivo; conditions: rat, in vivo, po
[3] = test system: rats; assay: Oral LD50 in rats; type: in vivo
[4] = Irritancy / physiological activity
[5] = test system: Aspergillus niger; parameters: key to the marks not given beside the values; conditions: 5%, 28° C
Procedure: (§1) The antifungal effect of the extract powder prepared in Example 2 was examined by adding it into potato-dextrose agar culture media in an amount of 0.2% by weight in which Aspergillus niger or Penicillium crysogenum were cultured at 28° C. For comparison, similar culture tests of the fungi were undertaken with the culture media in which no antimicrobial agent was added or 5% by weight of ethyl alcohol was added instead of the extract powder.
(§2) the results are summarized in Table 2 below, in which the marks "±" are for the cases where the growth of the molds was difficultly recognized, the marks "+" are for the cases where the growth of the molds could be recognized only of the hyphae though to a small extent, the mark "++" are for the cases where the growth could be recognized only of the hyphae to a considerable extent, and the marks "+++" and "++++" are for the cases where spores were formed.

[6] = test system: Penicillium crysogenum; conditions: 5%, 28° C
Procedure: as §1, §2

## C/C=C/C=C/C(=O)O [Sorbic acid, reference compound]
[1]; 0.2% by weight, tripticase soy broth
  duration of antimicrobial effect: about 4.5 hours

## O=C(CCCCCCCCc1cc(O)ccc1O)c1c(O)cccc1O [2',6'-dihydroxy-9-(2,5-dihydroxyphenyl)octylphenone]
[1]; 0.002% by weight, tripticase soy broth
  duration of growth prevention: ≥ 7.5 h
[1]; 0.002% vs sorbic acid 0.2%
  effectiveness compared with sorbic acid: more effective than sorbic acid
[1]; concentration one hundredth of that of sorbic acid
  antimicrobial effect compared with sorbic acid: as good as that of sorbic acid
[2]
  LD50: ≥ 2000 mg/kg
[3]
  LD50: 2000 mg/kg
[4]
  irritancy: non-irritant
  physiological activity: physiologically inactive

## CCO [Ethyl alcohol]
[5]; 10 days
  growth of mold: ++
[5]; 18 days
  growth of mold: ++
[6]; 10 days
  growth of mold: ±
[6]; 18 days
  growth of mold: ++
